Laboratory results as given in ChEMBL document CHEMBL5518204, “Discovery and Proof of Concept of Potent Dual Polθ/PARP Inhibitors for Efficient Treatment of Homologous Recombination-Deficient Tumors” (J Med Chem, 2024).
Activity calls are given as the source filed them. No cut-off for these calls is given here.

Experiments:
[1] = test system: SK-OV-3; assay: Antiproliferative activity against BRCA-proficient human SK-OV-3 cells assessed as inhibition of cell proliferation incubated for 5 days by MTT assay; type: functional, cell-based; conditions: SK-OV-3, 120 h
[2] = test system: HCT-116; assay: Antiproliferative activity against BRCA2-deficient human HCT-116 cells assessed as inhibition of cell proliferation incubated for 5 days by MTT assay; type: functional, cell-based; conditions: HCT-116, 120 h
[3] = biological target: T1, Poly [ADP-ribose] polymerase 1 (Homo sapiens, UniProt P09874); conditions: dose 10.0 nM, time 90.0 min
[4] = test system: MCF-10A; assay: (§1) Antiproliferative activity against human MCF-10A cells assessed as inhibition of cell proliferation incubated for 5 days by MTT assay; type: toxicity, cell-based; conditions: mcf-10a
[5] = biological target: T2, DNA polymerase theta (Homo sapiens, UniProt O75417); assay: Inhibition of DNA polymerase theta (unknown origin) ATPase activity incubated for 60 mins in presence of ATP by ADP-glo kinase assay
[6] = test system: MDA-MB-436; assay: Antiproliferative activity against BRCA1-deficient human MDA-MB-436 cells assessed as inhibition of cell proliferation incubated for 5 days by MTT assay; type: functional, cell-based; conditions: MDA-MB-436, 120 h
[7] = test system: HCC1937; assay: Antiproliferative activity against BRCA1-deficient human HCC1937 cells assessed as inhibition of cell proliferation incubated for 5 days by MTT assay; type: functional, cell-based; conditions: HCC1937, 120 h
[8] = test system: MDA-MB-231; assay: Induction of apoptosis in human MDA-MB-231 cells at 2 to 10 uM incubated for 3 days in presence of novobiocin by Annexin V-APC/7-AAD based flow cytometry analysis; type: functional; conditions: dose 2-10 µM, time 3 day
[9] = test system: MDA-MB-231; assay: Induction of cell cycle arrest in human MDA-MB-231 cells assessed as accumulation of cells at G2/M phase at 2 uM incubated for 3 days by PI staining based flow cytometric analysis; type: functional; conditions: time 3.0 day
[10] = test system: MDA-MB-231; assay: Induction of DNA damage in human MDA-MB-231 cells assessed as increase in tail intensity at 2 uM incubated for 3 days by florescence microscopic analysis; type: functional, cell-based; conditions: time 3.0 day
[11] = test system: MDA-MB-231; assay: Antiproliferative activity against 53BP1-knockdown human MDA-MB-231 cells incubated for 24 hrs by MTT assay; type: functional, cell-based
[12] = test system: MDA-MB-231; assay: Induction of apoptosis in human MDA-MB-231 cells at 2 uM incubated for 3 days by Annexin V-APC/7-AAD based flow cytometry analysis; type: functional; conditions: time 3 day
[13] = test system: MDA-MB-231; assay: Induction of cell cycle arrest in human MDA-MB-231 cells assessed as accumulation of cells at G2/M phase at 10 uM incubated for 3 days in presence of novobiocin by PI staining based flow cytometric analysis; type: functional; conditions: time 3.0 day
[14] = test system: MDA-MB-436; assay: Inhibition of colony formation in human MDA-MB-436 cells at 2 to 10 uM incubated for 9 days in presence of novobiocin by crystal violet staining based analysis; type: functional, cell-based; conditions: dose 2-10 µM, time 9.0 day
[15] = test system: MDA-MB-436; assay: Inhibition of colony formation in human MDA-MB-436 cells at 2 uM incubated for 9 days by crystal violet staining based analysis; type: functional, cell-based; conditions: time 9.0 day
[16] = test system: MDA-MB-231; assay: Induction of DNA damage in human MDA-MB-231 cells assessed as increase in gammaH2AX foci at 2 uM incubated for 3 days by DAPI staining based confocal laser scanning microscopic analysis; type: functional, cell-based; conditions: time 3.0 day
[17] = as §1; type: toxicity, cell-based; conditions: human, MCF-10A cells
[18] = test system: MDA-MB-231; assay: Induction of DNA damage in human MDA-MB-231 cells assessed as increase in tail intensity at 2 to 10 uM incubated for 3 days in presence of novobiocin by florescence microscopic analysis; type: functional, cell-based; conditions: dose 2-10 µM, time 3.0 day
[19] = test system: SW48; assay: Antiproliferative activity against BRCA2-deficient human SW48 cells assessed as inhibition of cell proliferation incubated for 5 days by MTT assay; type: functional, cell-based; conditions: SW48, 120 h
[20] = test system: MDA-MB-231; assay: Induction of DNA damage in human MDA-MB-231 cells assessed as increase in gammaH2AX foci at 2 to 10 uM incubated for 3 days in presence of novobiocin by DAPI staining based confocal laser scanning microscopic analysis; type: functional, cell-based; conditions: dose 2-10 µM, time 3.0 day
[21] = test system: MDA-MB-231; assay: Induction of apoptosis in human MDA-MB-231 cells at 10 uM incubated for 3 days by Annexin V-APC/7-AAD based flow cytometry analysis; type: functional; conditions: time 3 day
[22] = test system: MDA-MB-231; assay: Induction of cell cycle arrest in human MDA-MB-231 cells assessed as accumulation of cells at G2/M phase at 10 uM incubated for 3 days in presence of olaparib by PI staining based flow cytometric analysis; type: functional; conditions: time 3.0 day
[23] = test system: MDA-MB-231; assay: Induction of DNA damage in human MDA-MB-231 cells assessed as increase in tail intensity at 10 uM incubated for 3 days by florescence microscopic analysis; type: functional, cell-based; conditions: time 3.0 day
[24] = test system: MDA-MB-231; assay: Induction of DNA damage in human MDA-MB-231 cells assessed as increase in gammaH2AX foci at 10 uM incubated for 3 days by DAPI staining based confocal laser scanning microscopic analysis; type: functional, cell-based; conditions: time 3.0 day
[25] = test system: MDA-MB-231; assay: Induction of DNA damage in human MDA-MB-231 cells assessed as increase in tail intensity at 2 to 10 uM incubated for 3 days in presence of olaparib by florescence microscopic analysis; type: functional, cell-based; conditions: dose 2-10 µM, time 3.0 day
[26] = test system: MDA-MB-436; assay: Inhibition of colony formation in human MDA-MB-436 cells at 10 uM incubated for 9 days by crystal violet staining based analysis; type: functional, cell-based; conditions: time 9.0 day
[27] = test system: MDA-MB-231; assay: Antitumor activity against human MDA-MB-231 cells xenografted in BALB/c mouse assessed as tumor growth inhibition at 40 mg/kg, ip administered for 21 days; type: functional; conditions: MDA-MB-231, 504 h, time 21 day, read-out: TGI
[28] = test system: MDA-MB-231; assay: Antitumor activity against human MDA-MB-231 cells xenografted in BALB/c mouse assessed as tumor growth inhibition at 40 mg/kg, ip administered for 21 days in presence of olaparib; type: functional; conditions: MDA-MB-231, 504 h, time 21 day, read-out: TGI
[29] = test system: MDA-MB-231; assay: Induction of apoptosis in human MDA-MB-231 cells at 2 to 10 uM incubated for 3 days in presence of olaparib by Annexin V-APC/7-AAD based flow cytometry analysis; type: functional; conditions: dose 2-10 µM, time 3 day
[30] = test system: MDA-MB-231; assay: Induction of cell cycle arrest in human MDA-MB-231 cells assessed as accumulation of cells at G2/M phase at 10 uM incubated for 3 days by PI staining based flow cytometric analysis; type: functional; conditions: time 3.0 day
[31] = test system: MDA-MB-231; assay: Induction of DNA damage in human MDA-MB-231 cells assessed as increase in gammaH2AX foci at 2 to 10 uM incubated for 3 days in presence of olaparib by DAPI staining based confocal laser scanning microscopic analysis; type: functional, cell-based; conditions: dose 2-10 µM, time 3.0 day
[32] = test system: MDA-MB-436; assay: Inhibition of colony formation in human MDA-MB-436 cells at 2 to 10 uM incubated for 9 days in presence of olaparib by crystal violet staining based analysis; type: functional, cell-based; conditions: dose 2-10 µM, time 9.0 day
[33] = biological target: T2, DNA polymerase theta; assay: Inhibition of DNA polymerase theta (unknown origin) (1 to 899 residues) ATPase activity by NADH oxidation-coupled enzymatic assay
[34] = biological target: T2, DNA polymerase theta; assay: Inhibition of human DNA polymerase theta (67 to 970 residues) ATPase activity expressed in Sf9 insect cells incubated for 40 mins by ADP-glo assay
[35] = biological target: T1, Poly [ADP-ribose] polymerase 1; assay: Inhibition of human PARP1 incubated for 90 mins by colorimetric assay

T2 sequence (O75417 whole entry): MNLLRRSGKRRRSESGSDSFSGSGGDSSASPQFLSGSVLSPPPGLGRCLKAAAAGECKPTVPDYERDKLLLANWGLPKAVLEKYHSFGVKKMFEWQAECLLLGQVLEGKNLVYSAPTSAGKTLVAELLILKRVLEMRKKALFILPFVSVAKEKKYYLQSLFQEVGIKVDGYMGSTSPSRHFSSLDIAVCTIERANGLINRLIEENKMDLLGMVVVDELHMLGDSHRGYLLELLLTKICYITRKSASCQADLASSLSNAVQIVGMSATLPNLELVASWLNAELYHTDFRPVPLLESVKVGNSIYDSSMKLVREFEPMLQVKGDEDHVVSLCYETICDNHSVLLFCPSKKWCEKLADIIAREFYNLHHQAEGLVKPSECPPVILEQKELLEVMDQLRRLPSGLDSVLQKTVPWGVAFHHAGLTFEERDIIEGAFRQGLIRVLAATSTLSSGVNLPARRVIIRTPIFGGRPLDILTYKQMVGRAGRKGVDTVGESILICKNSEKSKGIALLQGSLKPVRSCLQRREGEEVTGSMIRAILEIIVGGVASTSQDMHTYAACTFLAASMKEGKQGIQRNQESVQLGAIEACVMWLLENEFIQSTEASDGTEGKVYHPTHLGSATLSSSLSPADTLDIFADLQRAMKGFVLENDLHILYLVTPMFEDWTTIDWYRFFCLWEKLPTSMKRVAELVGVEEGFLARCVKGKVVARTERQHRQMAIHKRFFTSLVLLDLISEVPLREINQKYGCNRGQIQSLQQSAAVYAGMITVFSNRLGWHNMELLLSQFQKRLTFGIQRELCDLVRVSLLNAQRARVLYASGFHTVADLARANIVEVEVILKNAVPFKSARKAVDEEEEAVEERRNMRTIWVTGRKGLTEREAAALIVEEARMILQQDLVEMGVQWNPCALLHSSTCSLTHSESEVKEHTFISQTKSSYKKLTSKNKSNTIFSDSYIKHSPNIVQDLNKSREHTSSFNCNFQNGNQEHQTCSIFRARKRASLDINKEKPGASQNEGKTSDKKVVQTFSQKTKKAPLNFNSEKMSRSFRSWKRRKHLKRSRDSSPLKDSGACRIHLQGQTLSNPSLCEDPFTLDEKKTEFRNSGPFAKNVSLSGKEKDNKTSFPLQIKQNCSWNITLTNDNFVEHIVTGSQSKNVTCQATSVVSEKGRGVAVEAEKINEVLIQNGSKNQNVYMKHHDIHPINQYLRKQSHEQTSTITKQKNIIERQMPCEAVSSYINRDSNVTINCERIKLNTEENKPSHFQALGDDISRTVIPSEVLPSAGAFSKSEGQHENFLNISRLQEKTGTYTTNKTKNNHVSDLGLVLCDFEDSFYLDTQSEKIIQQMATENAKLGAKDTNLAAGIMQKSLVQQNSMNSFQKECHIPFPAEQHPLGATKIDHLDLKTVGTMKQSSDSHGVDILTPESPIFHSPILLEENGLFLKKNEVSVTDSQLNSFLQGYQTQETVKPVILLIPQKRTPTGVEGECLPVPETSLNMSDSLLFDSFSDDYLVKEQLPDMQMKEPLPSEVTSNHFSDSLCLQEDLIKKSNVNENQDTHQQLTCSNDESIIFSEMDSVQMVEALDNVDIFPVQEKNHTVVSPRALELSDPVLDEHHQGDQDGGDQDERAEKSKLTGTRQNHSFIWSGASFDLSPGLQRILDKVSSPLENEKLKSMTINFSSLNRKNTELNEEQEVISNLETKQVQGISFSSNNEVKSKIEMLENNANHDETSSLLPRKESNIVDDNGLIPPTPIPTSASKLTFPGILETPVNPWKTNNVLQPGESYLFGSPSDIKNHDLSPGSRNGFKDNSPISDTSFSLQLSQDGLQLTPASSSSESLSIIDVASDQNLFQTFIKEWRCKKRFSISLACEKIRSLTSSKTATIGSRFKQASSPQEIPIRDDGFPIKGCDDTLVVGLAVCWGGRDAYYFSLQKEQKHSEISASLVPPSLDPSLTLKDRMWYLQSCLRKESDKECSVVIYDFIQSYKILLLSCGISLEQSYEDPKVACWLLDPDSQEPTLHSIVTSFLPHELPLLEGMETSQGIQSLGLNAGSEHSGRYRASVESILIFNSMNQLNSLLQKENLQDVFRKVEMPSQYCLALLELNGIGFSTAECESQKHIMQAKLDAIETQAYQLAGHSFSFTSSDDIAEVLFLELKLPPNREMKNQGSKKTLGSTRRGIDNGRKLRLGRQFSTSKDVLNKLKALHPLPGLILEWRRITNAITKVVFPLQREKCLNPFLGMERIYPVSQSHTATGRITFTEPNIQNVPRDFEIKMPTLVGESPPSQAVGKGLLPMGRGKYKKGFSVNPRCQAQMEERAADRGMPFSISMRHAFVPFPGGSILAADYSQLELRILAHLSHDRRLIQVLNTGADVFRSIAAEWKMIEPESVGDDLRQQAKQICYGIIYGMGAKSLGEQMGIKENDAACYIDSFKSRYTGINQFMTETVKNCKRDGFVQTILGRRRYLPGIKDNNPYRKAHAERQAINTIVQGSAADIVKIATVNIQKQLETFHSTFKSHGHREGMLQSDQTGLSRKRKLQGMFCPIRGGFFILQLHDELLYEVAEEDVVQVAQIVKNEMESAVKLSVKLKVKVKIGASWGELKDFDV
T1 sequence (P09874 whole entry): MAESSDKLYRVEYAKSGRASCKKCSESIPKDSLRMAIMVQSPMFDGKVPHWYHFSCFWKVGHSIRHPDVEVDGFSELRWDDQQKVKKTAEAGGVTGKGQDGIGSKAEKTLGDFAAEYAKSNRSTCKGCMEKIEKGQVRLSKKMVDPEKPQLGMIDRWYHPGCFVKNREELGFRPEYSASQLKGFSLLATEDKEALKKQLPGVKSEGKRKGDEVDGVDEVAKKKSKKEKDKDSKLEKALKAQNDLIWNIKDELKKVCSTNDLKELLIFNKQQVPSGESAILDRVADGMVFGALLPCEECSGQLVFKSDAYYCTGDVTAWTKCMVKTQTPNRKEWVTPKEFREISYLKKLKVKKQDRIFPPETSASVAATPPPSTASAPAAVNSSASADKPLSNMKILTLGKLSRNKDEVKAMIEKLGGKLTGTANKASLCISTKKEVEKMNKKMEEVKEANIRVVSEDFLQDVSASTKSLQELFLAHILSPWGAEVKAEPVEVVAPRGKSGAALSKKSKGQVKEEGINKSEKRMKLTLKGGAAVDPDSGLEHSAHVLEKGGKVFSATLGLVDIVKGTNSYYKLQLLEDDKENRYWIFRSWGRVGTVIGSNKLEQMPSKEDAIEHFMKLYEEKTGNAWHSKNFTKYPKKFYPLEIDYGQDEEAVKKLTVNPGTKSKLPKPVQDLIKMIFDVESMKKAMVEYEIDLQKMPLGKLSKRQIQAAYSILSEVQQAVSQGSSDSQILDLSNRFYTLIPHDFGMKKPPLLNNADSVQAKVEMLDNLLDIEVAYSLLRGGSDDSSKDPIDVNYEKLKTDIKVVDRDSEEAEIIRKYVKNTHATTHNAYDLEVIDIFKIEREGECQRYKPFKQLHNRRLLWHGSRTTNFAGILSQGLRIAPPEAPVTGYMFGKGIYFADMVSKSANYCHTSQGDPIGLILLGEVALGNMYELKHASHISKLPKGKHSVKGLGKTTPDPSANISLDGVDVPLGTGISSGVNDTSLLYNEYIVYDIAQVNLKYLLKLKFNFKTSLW

COc1cccc(F)c1-c1cc(C)ncc1C(=O)Nc1nnc(OC2CC3(CCN(C(=O)c4cc(Cc5n[nH]c(=O)c6ccccc56)ccc4F)CC3)C2)s1
IC50 [1]: > 80 µM
IC50 [2]: 7.2 µM
inhibition [3]: 72.8%
IC50 [4]: Non-Toxic
IC50 [5]: 0.0793 µM
IC50 [6]: 5.5 µM
IC50 [7]: 65.6 µM

COc1ccccc1-c1cnccc1C(=O)Nc1ncc(N2CCN(C(=O)c3cc(Cc4n[nH]c(=O)c5ccccc45)ccc3F)CC2)s1
inhibition [3]: 93.1%
IC50 [5]: > 1 µM

COc1ccccc1-c1cnccc1C(=O)Nc1nnc(OC2CC3(CCN(C(=O)c4cc(Cc5n[nH]c(=O)c6ccccc56)ccc4F)CC3)C2)s1
inhibition [3]: 47%
IC50 [5]: 0.166 µM

COc1ccccc1-c1cnccc1C(=O)Nc1nnc(OC2CC3(C2)CN(C(=O)c2cc(Cc4n[nH]c(=O)c5ccccc45)ccc2F)C3)s1
inhibition [3]: 56.4%
IC50 [5]: 0.268 µM

O=C(c1cc(Cc2n[nH]c(=O)c3ccccc23)ccc1F)N1CCN(C(=O)C2CC2)CC1 [OLAPARIB]
Activity [8]: 14.2%
Activity [9]: Active
Activity [10]: Active
Activity [11]: inactive
Activity [12]: 8.9%
IC50 [1]: 27.1 µM
Activity [13]: Active
inhibition [14]: Active
inhibition [15]: Active
Activity [16]: Active
IC50 at 5 days [17]: > 80 µM
Activity [18]: Active
IC50 [6]: 13.3 µM
IC50 [19]: 4.6 µM
IC50 [7]: 38.2 µM
Activity [20]: Active

COc1ccccc1-c1cnccc1C(=O)Nc1nnc(OCC2CN(C(=O)c3cc(Cc4n[nH]c(=O)c5ccccc45)ccc3F)C2)s1
inhibition [3]: 36.9%
IC50 [5]: > 1 µM

COc1ccccc1-c1cnccc1C(=O)N1CCN(C(=O)c2cc(Cc3n[nH]c(=O)c4ccccc34)ccc2F)CC1
inhibition [3]: 87.9%
IC50 [5]: > 1 µM

CO[C@@H]1[C@@H](OC(N)=O)[C@@H](O)[C@H](Oc2ccc3c(O)c(NC(=O)c4ccc(O)c(CC=C(C)C)c4)c(=O)oc3c2C)OC1(C)C [NOVOBIOCIN]
Activity [21]: 6.4%
Activity [22]: Active
Activity [23]: Active
Activity [11]: Active
Activity [24]: Active
IC50 [1]: > 80 µM
Activity [25]: Active
inhibition [26]: Active
inhibition in vivo at 40 mg/kg [27]: 45%
inhibition in vivo at 40 mg/kg [28]: 62.5%
Activity [29]: 14.2%
IC50 [2]: > 80 µM
Activity [30]: Active
Activity [31]: Active
IC50 at 5 days [17]: > 80 µM
inhibition [32]: Active
IC50 [6]: 24.3 µM
IC50 ([19]; read-out: IC50): > 80 µM
IC50 [7]: > 80 µM

COc1cnc(C(F)F)cc1-c1cc(N2CCC(C)CC2=O)ncc1C(=O)Nc1nnc(C#CC2CC2)s1 (stereo not given)
IC50 [33]: < 0.2 µM

COc1ccccc1-c1cnccc1C(=O)Nc1nnc(OCc2ccc(Cl)cc2)s1
IC50 [33]: < 0.2 µM
IC50 [1]: 92.1 µM
IC50 [34]: 0.0024 µM
IC50 [2]: 46.3 µM
IC50 at 5 days [17]: > 80 µM
IC50 [5]: 0.0024 µM
IC50 [6]: 59.4 µM
IC50 ([19]; read-out: IC50): 13.4 µM
IC50 [7]: 61.9 µM

COc1ccccc1-c1cnccc1C(=O)Nc1nnc(N2CCN(C(=O)c3cc(Cc4n[nH]c(=O)c5ccccc45)ccc3F)CC2)s1
inhibition [3]: 91.4%
IC50 [5]: > 1 µM

O=C(Nc1nnc(OCc2ccc(Cl)cc2)s1)c1cc(Cc2n[nH]c(=O)c3ccccc23)ccc1F
IC50 [5]: > 1 µM

COc1ccccc1-c1cnccc1C(=O)Nc1nnc(OCC2CCN(C(=O)c3cc(Cc4n[nH]c(=O)c5ccccc45)ccc3F)CC2)s1
IC50 [1]: 32.6 µM
IC50 [2]: 17.6 µM
inhibition [3]: 91.6%
IC50 [4]: Non-Toxic
IC50 [5]: 0.117 µM
IC50 [6]: 5.6 µM
IC50 [7]: 18.1 µM

COc1ccccc1-c1cnccc1C(=O)Nc1nnc(OCc2cc(Cc3n[nH]c(=O)c4ccccc34)ccc2F)s1
inhibition [3]: 30.3%

COc1ccc(F)cc1-c1cc(C)ncc1C(=O)Nc1nnc(OC2CC3(CCN(C(=O)c4cc(Cc5n[nH]c(=O)c6ccccc56)ccc4F)CC3)C2)s1
IC50 [1]: > 80 µM
IC50 [2]: 8.4 µM
inhibition [3]: 70.1%
IC50 [35]: 0.0047 µM
IC50 [4]: Non-Toxic
IC50 [5]: 0.0719 µM
IC50 [6]: 9.1 µM
IC50 [7]: 57.8 µM

COc1ccccc1-c1cnccc1C(=O)Nc1nnc(N2CC3(CCN(C(=O)c4cc(Cc5n[nH]c(=O)c6ccccc56)ccc4F)CC3)C2)s1
inhibition [3]: 82.8%
IC50 [5]: > 1 µM

COc1ccc(Cl)cc1-c1cc(C)ncc1C(=O)Nc1nnc(OC2CC3(CCN(C(=O)c4cc(Cc5n[nH]c(=O)c6ccccc56)ccc4F)CC3)C2)s1
IC50 [1]: > 80 µM
IC50 [2]: 6.2 µM
inhibition [3]: 66.9%
IC50 [4]: Non-Toxic
IC50 [5]: 0.0598 µM
IC50 [6]: 10.5 µM
IC50 [7]: 89.4 µM
